The source of these data is patent US20190015397A1, “SUBSTANCE THAT INHIBITS P2Y12 RECEPTOR, FOR USE IN THE PREVENTIVE TREATMENT OF SYSTEMIC SCLEROSIS IN PATIENTS WITH RAYNAUD'S PHENOMENON AND A DYSIMMUNITY” (UNIVERSITÉ DE BORDEAUX, priority 2016, published 2019).

In data set [1] the test system is human dermal microvascular endothelial cells (HDMEC). Nature of the data set: Platelet-induced TSLP production in platelet/EC co-culture with blocking antibodies. Conditions: ADP-activated platelets. In kind it is cell-based. On the procedure:
(§1) (A) 70000 HDMEC were cultured for 24 hrs in 24-well culture plate in MV-2 complete medium along with increasing amount of purified non-activated platelets (white bars) or adenosine diphosphate-activated platelets (black bars) (from 10 to 200 platelets for 1 HDMEC). […] (B) HDMEC were stimulated with ADP-activated platelets with or without anti-IL1β blocking antibody. Condition “platelet-” is a comparison without platelets. […] (C) HDMEC were stimulated with increasing doses of serotonin (from 0 to 90 ng/ml). A Wilcoxon test was used. (*p=0.013). (D) HDMEC were stimulated with ADP-activated platelets (ratio HDMEC:platelets=1:200) with or without blocking anti-IL1β with or without 5HT-receptors (5HTR2a and 5HTR2b) blocking antibodies. […] Supernatants were harvested and TSLP content was measured using dedicated ELISA. Results are mean and SEM from 3 independent experiments.
(§2) TSLP levels in cell culture supernatants or serum was quantified using an ELISA kit from eBiosciences following the manufacturer's instruction.
(§3) Human dermal microvascular EC were cultured in complete MV2 growth medium in a 96 well-plates with flat bottom (20000 cells per well in 200 μl) and allowed to stand overnight before adding different reagents (IL-1β, IL-4, IL-13, TNF-α, IFN-γ, LPS, 5HT or Tryptase) or platelets ADP-activated or not for 24 h at 37° C. […]

The target of data set [2] is P2Y12 receptor (Homo sapiens, UniProt Q9H244). The settings on record: cited from earlier work.
Chain of P2Y12 receptor (Q9H244 whole entry): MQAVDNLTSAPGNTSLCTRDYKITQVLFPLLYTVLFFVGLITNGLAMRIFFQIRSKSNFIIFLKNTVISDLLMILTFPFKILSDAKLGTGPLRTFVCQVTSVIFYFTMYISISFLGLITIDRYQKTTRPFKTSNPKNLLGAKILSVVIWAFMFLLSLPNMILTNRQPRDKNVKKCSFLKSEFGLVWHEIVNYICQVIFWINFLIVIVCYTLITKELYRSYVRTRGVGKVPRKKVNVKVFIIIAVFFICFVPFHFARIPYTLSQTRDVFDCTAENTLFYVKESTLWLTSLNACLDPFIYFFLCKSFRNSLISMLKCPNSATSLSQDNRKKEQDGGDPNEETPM
Data set [3] deals with human dermal fibroblasts. As to the kind of experiment: Pro-fibrotic mRNA profile of activated human dermal fibroblasts (RT-qPCR). In kind it is cell-based. The settings on record: for MMP-1 mRNA expression / collagen1A1 mRNA / collagen/collagenase ratio (COL1A1 on MMP-1 mRNA): HD dermal fibroblasts; for MMP-1 mRNA expression / collagen1A1 mRNA / collagen/collagenase ratio (COL1A1 on MMP-1 mRNA) / MCP-1 mRNA expression: 48 h; for MCP-1 mRNA expression: human dermal fibroblasts. On the procedure:
Human dermal fibroblasts were isolated from healthy skin and incubated 48 h with DMEM, IL1β, recombinant TSLP or TGFβ1. (A) Quantification of Col1A1 mRNA from activated fibroblasts using RT-qPCR from 3 different healthy donors was expressed in ΔΔCT with DMEM as the baseline condition. (B) Quantification of MMP-1 mRNA from activated fibroblasts using RTqPCR, results of 3 different healthy donors. (C) Ratio of COL1A1 on MMP-1 (collagenase) mRNA from activated normal fibroblasts using RT-qPCR, results of 3 different healthy donors (left panel) and 3 SSc patients (right panel). Among SSc patients, two patients were dcSSc and fibroblasts came from TSLP+ fibrotic skin (patients #1 and 2), the other was a IcSS and fibroblasts came from TSLP-low fibrotic skin (patient #3). (D) Quantification of MCP-1 from activated normal fibroblasts using RT-qPCR, results of 3 different donors. Kruskal Wallis test was used to compare the mean of mRNA expression levels. *P<0.05.
Fibroblasts were obtained from […] skin biopsy samples from 3 healthy donors as described elsewhere (Truchetet M E, Brembilla N C, Montanari E, et al. Interleukin-17A+ cell counts are increased in systemic sclerosis skin and their number is inversely correlated with the extent of skin involvement. Arthritis Rheum 2013; 65:1347-1356 ([24])).
Total RNA was isolated from trypsinized fibroblasts with the NucleoSpin RNA II extraction system (Macherey-Nagel, Duren, Germany) and cDNA synthesized from […] of total RNA using random hexamers and Superscript III reverse transcriptase (Invitrogen, Carlsbad, Calif.) according to manufacturer's instructions. Gene expression was quantified using SYBR green performed on a SDS 7900 HT instrument (Applied Biosystems). Specific primer pairs for each gene described in supplementary material (Datta A, Alexander R, Sulikowski M G, et al. Evidence for a functional thymic stromal lymphopoietin signaling axis in fibrotic lung disease. J Immunol 2013; 191:4867-4879 ([25]); Brembilla N C, Montanari E, Truchetet M E, et al. Th17 cells favor inflammatory responses while inhibiting type I collagen deposition by dermal fibroblasts: differential effects in healthy and systemic sclerosis fibroblasts. Arthritis Res Ther 2013; 15:R151 ([26]); Yoda A, Yoda Y, Chiaretti S, et al. Functional screening identifies CRLF2 in precursor B-cell acute lymphoblastic leukemia. Proc Natl Acad Sci USA 2010; 107:252-257 ([27]); Le Q T, Gomez G, Zhao W, et al. Processing of human protryptase in mast cells involves cathepsins L, B, and C. J Immunol 2011; 187:1912-1918 ([28])). Each reaction was performed in triplicates. […] Oligonucleotides were obtained from Sigma-Aldrich. Differences were calculated with the threshold cycle (Ct) and the comparative Ct method for relative quantification.
Background: Quantitative PCR measures a nucleic acid by following its amplification.

In data set [4] the test system is human dermal microvascular endothelial cells (HDMEC). Nature of the data set: TSLP production by human dermal microvascular EC stimulated with cytokines/reagents (ELISA, RTqPCR). In kind it is cell-based. The protocol: FIG. 4: IL1β-stimulated human dermal microvascular endothelial cells (HDMEC) produce TSLP. Normal HDMEC were purified from normal skin (plastic surgery) and stimulated 24 hrs with (A) cytokines potentially involved in SSc and the TLR4 agonist LPS or (B) increasing amount of IL1β (from 10 to 50 ng/ml) in complete MV-2 medium (M). Supernatants were harvested and TSLP content was measured by dedicated ELISA from eBioscience. Mean and SD from 3 (A) and 6 (B) independent experiments. (C) Quantification of TSLP mRNA from IL1β (50 ng/mL) activated HDMEC using RTqPCR, one representative experiment out of 3. *P<0.05 and ***P=0.0004 using Kruskal Wallis test.
as §1, §2, §3

For data set [5], the system named is mice models of scleroderma. The settings on record: two mice models of scleroderma; cited from earlier work.
Data set [6] has as its system human normal microvascular endothelial cells. Nature of the data set: TSLP secretion by endothelial cells co-incubated with platelets from patients treated by P2Y12 inhibitors. It is filed as cell-based. The settings on record: clopidogrel 75 mg or ticagrelor 90 mg per day; platelets:EC 200:1, 24 hrs, ELISA. The protocol: FIG. 7: represents TSLP secretion (in pg/ml: A, or in %: B) by endothelial cells after stimulation by, from left to right, platelets from healthy donors (HD, n=6), patients treated by clopidogrel (n=3) or by ticagrelor (n=4). […] Supernatants were harvested and frozen before analysis. TSLP concentration was determined by ELISA.
Briefly, platelets purified from healthy normal subject, or non-sclerodermic patients treated with clopidogrel (75 mg par jour), or a non-sclerodermic patient treated with ticagrelor (90 mg par jour), for preventing atherothrombotic events, were co-incubated with human normal microvascular endothelial cells at a 200:1 ratio for 24 hrs. Cell culture supernatant was collected and TSLP content was measured using a dedicated commercial ELISA kit.
(An ELISA detects its analyte on a solid surface through an enzyme-linked reagent.)

In data set [7] the test system is bleomycin-injected mice.
Data set [8] deals with patients with SSc. The settings on record: cited from earlier work.
Data set [9] relates to healthy endothelial cells. As to the kind of experiment: TSLP production by healthy endothelial cells with platelets treated with acetylsalicylic acid. It is filed as cell-based, human. The settings on record: doses 0, 10 and 1000 pg/ml. The source says:
FIG. 8: represents the in vitro TSLP production (pg/ml) by healthy endothelial cells in the presence of platelets from a first healthy non sclerodermic patient a second non sclerodermic patient previously treated with acetylsalicylic acid (aspirin, pg/ml) at a dose of 0, 10 and 1000 pg/ml.
The endothelial TSLP production is not inhibited by healthy patients platelets treated with acetylsalicylic acid (aspirin active metabolite) (see FIG. 8).

Entries after “also recorded” stand apart in the source; their conditions may differ.

For “canakinumab: monoclonal antibody blocking IL-1β”, in [1] (FIG. 5B, blocking antibody 10 μg/mL, vs 64.8±3.9 pg/ml without antibody), the “platelet-induced TSLP production” value was found to be 20.9 ± 3.7 pg/mL. Besides, the “TSLP production in platelet/EC co-culture” value in data set [1] (HDMEC:platelets=1:200, FIG. 5D, vs 649±13.8 pg/ml in platelet/EC) is 335.1 ± 28.5 pg/mL.
As for `CCCSc1nc(N[C@@H]2C[C@H]2c2ccc(F)c(F)c2)c2nnn([C@@H]3C[C@H](O)[C@@H](O)[C@H]3O)c2n1` [AR-C124910XX], in data set [2], the “potency of active metabolite relative to ticagrelor” value is on record as “approximately equipotent”.
For the compound “IL1β: pro-inflammatory cytokine used as stimulus”, in data set [3], the “MMP-1 mRNA expression” value is given as 5.7±1.7 fold increase vs medium condition, the “collagen1A1 mRNA” value is given as 1.7±0.4 fold increase vs medium condition, the “collagen/collagenase ratio (COL1A1 on MMP-1 mRNA)” value is on record as 0.47±0.3 fold increase vs medium condition and the “MCP-1 mRNA expression” value is reported as 52.7±11.2 fold increase vs medium condition. The “TSLP production by dermal microvascular EC (protein)” value in [4] (IL1β stimulation 24 hrs, vs 7.4±3.5 pg/ml with dermal microvascular EC alone) came out at 651.7 ± 95.4 pg/mL. For the same compound, the “TSLP expression at the transcriptomic level” value in [4] (RTqPCR, IL1β 50 ng/mL) is on record as “increase the expression of TSLP”.
Regarding “TGFβ: cytokine used as control condition on fibroblasts”, in data set [3], the “MMP-1 mRNA expression” value is given as 0.56±0.14 fold increase vs medium condition, the “collagen1A1 mRNA” value is recorded as 5.35±0.9 fold increase vs medium condition and the “MCP-1 mRNA expression” value was 0.31±0.09 fold increase vs medium condition.
Consider “rTSLP: recombinant Thymic Stromal Lymphopoietin”, for which, in [3], the “MMP-1 mRNA expression” value is 0.59±0.06 fold increase vs medium condition, the “collagen1A1 mRNA” value is given as 1.5±0.06 fold increase vs medium condition, the “collagen/collagenase ratio (COL1A1 on MMP-1 mRNA)” value is 2.6±0.3 fold increase vs medium condition and the “MCP-1 mRNA expression” value is given as 0.48±0.02 fold increase vs medium condition. Besides, in data set [3] (fibroblasts from TSLP+ fibrotic skin of two dcSSc patients, compared to lcSSc patient or normal fibroblasts), the “collagen/collagenase ratio in SSc fibroblasts” value was “lower collagen/collagenase ratio”.
With `COC(=O)[C@H](c1ccccc1Cl)N1CCc2sccc2C1` [clopidogrel], in data set [5], the fibrosis entry is recorded as “reduces fibrosis”. Further, the “TSLP production by endothelial cells induced by platelets of treated patients” value in [6] is “failed to induce TSLP production; also recorded: can block the pro-fibrotic TSLP molecule expression”. Moreover, the dermal thickness result in data set [7] (clopidogrel 25 mg/kg/d per os from 15 days before bleomycin 30 μg/mice s.c.) was “reduces the dermal thickness”. Moreover, the “skin fibrotic effect of Bleomycin” value in data set [7] (clopidogrel pre-treatment 25 mg/kg/d per os) is on record as “significantly reduces”. The “development of digital ulcers” value in data set [7] (preventive treatment of mice before the establishment of fibrosis) is “not associated with development of digital ulcers”. Further, the “markers of endothelial function and new digital ulcers” value in data set [8] was “may worsen markers of endothelial function and associate with development of new digital ulcers”.
On to `CCCSc1nc(N[C@@H]2C[C@H]2c2ccc(F)c(F)c2)c2nnn([C@@H]3C[C@H](OCCO)C(O)C3O)c2n1` (stereo partly drawn) [ticagrelor], for which, in [6], the “TSLP production by endothelial cells induced by platelets of treated patients” value was “failed to induce TSLP production”.
With `NCCc1c[nH]c2ccc(O)cc12` [serotonin, reference compound], in data set [4] (serotonin at 90 ng/ml, vs 0.75±0.5 pg/ml for EC alone), the “TSLP production by dermal microvascular EC” value stood at 58.9 ± 11.4 pg/mL.
`CC(=O)Oc1ccccc1C(=O)O` [acetylsalicylic acid]: the “endothelial TSLP production with acetylsalicylic acid-treated platelets” value in data set [9] is given as “not inhibited”; in [9] (listed as aspirin) it was “not observed”.
